Our source for the CRE-dependent transactivation values is US7884067B2, “Peptides derived from cadherin and methods of use thereof” (Mount Sinai School of Medicine of New York University, priority 2001, dated 2011).

SMILES strings stand for the structures.

For the experiment, the system named is CRE-dependent transactivation. Description: CRE-dependent transactivation in N2a cells. It is filed as cell-based, mouse. On the set-up: dose or concentration left out as unconfirmed. To be noted: 16 hours, vs DMSO, FIG. 10A. The protocol: Transactivation assays. CRE-dependent transactivation was measured in the absence or presence of overexpression of PKA (pFC-PKA, Stratagene) by cotransfection with CRE-luciferase reporter plasmid (pCRE-Luc, Stratagene) and pSV-β-galactosidase vector (Promega) to evaluate transfection efficiency. CHOP-mediated transactivation was measured by cotransfection with the Gal4-fusion trans-activator plasmids (pFA-CHOP and pFR-Luc, Stratagene). 30 hours after transfection, luciferase and β-galactosidase activities were determined following manufacturer's instructions using a TD-20/20 luminometer (Turner Designs) and a DU-64 spectrophotometer (Beckman). Values were normalized to β-galactosidase activity and protein concentration.
N2a cells co-transfected with plasmids pCRE-luc, pFC-PKA, and pSV-β-galactosidase were incubated for 16 hours with DMSO or with L-685,458 ([…]) and CRE-dependent transactivation was measured as described above. […] Total RNA isolated from N2a cells treated either with DMSO or with L-685,458, was analyzed by semiquantitative RT-PCR using specific primers for c-fos and gapdh. The graph in FIG. 10B represents the relative abundance of c-fos-specific PCR products following quantitation of the mRNA signals shown in the upper panel. […]

Regarding `CC(C)C[C@H](NC(=O)[C@H](Cc1ccccc1)C[C@@H](O)[C@H](Cc1ccccc1)NC(=O)OC(C)(C)C)C(=O)N[C@@H](Cc1ccccc1)C(N)=O` [L-685,458], the CRE-dependent transactivation entry is on record as “increased”.
